According to patent US10744150B2, “Cyclic dinucleotides as anticancer agents” (BRISTOL-MYERS SQUIBB COMPANY, priority 2017, dated 2020):
Like-named read-outs stand apart in the source and are kept apart here.

What was measured:
IRF3 = test: STING THP1 reporter assay, IRF pathway (secreted luciferase Lucia, QUANTI-Luc); format: cell-based; conditions: THP1-Dual cells, 10% human plasma, 100% activation = 100 μM cGAMP, luciferase readout, read-out: THP1 Reporter Assays EC50 IRF3
Source text: (§1) THP1-Dual™ cells were derived from the human THP-1 monocyte cell line by stable integration of two inducible reporter constructs. To this end, THP1-Dual™ cells allow the simultaneous study of the NF-κB pathway, by monitoring the activity of SEAP, and the IRF pathway by assessing the activity of a secreted luciferase (Lucia). Both reporter proteins are readily measurable in the cell culture supernatant when using QUANTI-Blue™, a SEAP detection reagent, and QUANTI-Luc™, a luciferase detection reagent.
(§2) THP1-Dual™ cells induce the activation of NF-κB in response to STING agonists. They also trigger the IRF pathway upon stimulation with STING agonists, such as cGAMP. Here, the THP-1-Dual cells were used to assess STING binders for function on the cellular level.
(§3) Serial dilutions of compounds in DMSO were added to low volume 384 well plates at 100 nl/well using an ECHO acoustic dispenser (Labcyte, model 550) to achieve final starting concentration of 100 μM in cell suspension. THP-1 Dual™ STING reporter cells (Invivogen, Dual cells cat # THPD-nfis) were added to the plates with compounds at 15,000 cells in 10 μL per well in RPMI media (Gibco, cat #11875) containing 10% human plasma in a low volume 384-well black wall clear bottom tissue culture plate (Corning, cat #3542) for SEAP assay and low volume solid white plate (Corning, cat #3826) for luciferase assay. One column of the plate was reserved for treatment with cGAMP at 100 μM for 100% activation calculation and one column for no treatment (DMSO only) for baseline activation. Plates were then incubated in 37° C. incubator at 5% CO2 for 20 hours.
(§4) In the SEAP assay, 5 μl of 2× QuantiBlue (Invivogen, cat # Rep-qb2) is added to 384 well black plates seeded with THP1 cells and incubated at 37° C. for 2 hours. Plates were read on the Envision (Perkin Elmer) at 620 nm wavelength (OD620). In the luciferase assay, 5 μl of Quantiluc (Invivogen, Rep-qlc2) is added to white 384 well plates seeded with THP1 cells and read at 5 minutes on the Envision (Perkin Elmer) using a luminescence protocol (RLU). For both cell lines, 100% activation was determined by value (RLU) of THP-1 Dual STING cells stimulated with 100 μM cGAMP (Invivogen, cat # TLRL-NACGA23-5).

NFkB = test: STING THP1 reporter assay, NF-κB pathway (SEAP, QUANTI-Blue); format: cell-based; conditions: THP1-Dual cells, 10% human plasma, 100% activation = 100 μM cGAMP
Source text: as §1, §2, §3, §4

[1] = target: T1, STING WT: His-TVMV-S-hSTING(155-341)-H232R (Homo sapiens, UniProt Q86WV6, H232R); test: STING HTRF binding assay (time resolved FRET competition), STING WT; conditions: 20 nM His-tagged STING cytoplasmic domain, 200 nM fluorescein-labeled cGAMP analog probe, one hour; read-out: HTRF Binding Assays IC50 STING WT
T1 construct: His-TVMV-S-hSTING(155-341)-H232R
Procedure: (§5) A time resolved FRET-based competition binding assay was used to assess test article binding to STING WT and STING AQ. His-tagged STING cytoplasmic domain (WT or AQ) at a concentration of 20 nM was incubated with 2.5 nM Tb-labeled anti-His antibody, test compound, and fluorescein-labeled cGAMP analog probe (BioLog cat. no. C195) at a concentration of 200 nM (STING WT) or 40 nM (STING AQ) in PBS containing 0.005% Tween-20 and 0.1% BSA for one hour. Fluorescence at 495 nm and 520 nm was measured using an EnVision microplate reader to quantify FRET between Tb-labeled anti-His antibody and fluorescein-labeled probe. Background was defined as the signal obtained in the absence of STING protein, and background subtracted FRET ratios were normalized to the maximum signal obtained in the absence of test compound. These values were converted to a percent inhibition. Percent inhibition was determined for test compounds at 11 concentrations. The IC50, defined as the concentration of competing test compound needed to reduce specific binding of the probe by 50%, was calculated using the 4 parameter logistic equation to fit the data

[2] = target: T2, STING AQ: His-TVMV-S-hSTING(155-341)-G230A-R293Q (Homo sapiens, UniProt Q86WV6, G230A/H232R/R293Q); test: STING HTRF binding assay (time resolved FRET competition), STING AQ; conditions: 20 nM His-tagged STING cytoplasmic domain, 40 nM fluorescein-labeled cGAMP analog probe, one hour; read-out: HTRF Binding Assays IC50 STING AQ
T2 construct: His-TVMV-S-hSTING(155-341)-G230A-R293Q
Procedure: as §5

[3] = 20 hours, SEAP readout OD620, read-out: THP1 Reporter Assays EC50 NFkB
[4] = Homo sapiens, THP-1, 20 h, SEAP readout OD620, read-out: THP1 Reporter Assays EC50 NFkB

T1 sequence (Q86WV6 with tags, fused parts or gaps H232R): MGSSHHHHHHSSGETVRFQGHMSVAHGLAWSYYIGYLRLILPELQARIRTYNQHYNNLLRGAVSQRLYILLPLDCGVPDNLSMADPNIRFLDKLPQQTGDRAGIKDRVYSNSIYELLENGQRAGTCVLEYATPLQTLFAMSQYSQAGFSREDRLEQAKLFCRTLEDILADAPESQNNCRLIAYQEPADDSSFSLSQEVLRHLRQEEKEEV
T2 sequence (Q86WV6 with tags, fused parts or gaps G230A/H232R/R293Q): as the sequence (Q86WV6 with tags, fused parts or gaps H232R) above, with G99A, R162Q counted along it

| SMILES | EC50 (IRF3; 20 hours) | EC50 (NFkB; [3]) | IC50 [1] | EC50 (NFkB; [4]) | IC50 [2] | EC50 (IRF3; Homo sapiens, THP-1, 20 h) |
| --- | --- | --- | --- | --- | --- | --- |
| Nc1ncnc2c1ncn2[C@@H]1C[C@@H]2COP(O)(=S)O[C@H]3[C@H](F)[C@H](n4ccc5c(Cl)ncnc54)O[C@@H]3COP(O)(=S)OC[C@H]21 (single isomer, unassigned) [Example 7-2] | > 100 µM | > 100 µM | > 100 µM | – | – | – |
| Nc1ncnc2c1ncn2[C@@H]1O[C@@H]2COP(O)(=S)OC[C@@H]3[C@@H](COP(O)(=S)O[C@H]2[C@H]1F)C[C@H]3n1cnc2c(=O)[nH]cnc21 (single isomer, unassigned) [Example 5-1] | > 100 µM | – | 5.7 µM | > 100 µM | 0.1 µM | – |
| NC(=O)c1cccc2c1nnn2[C@@H]1O[C@@H]2COP(O)(=S)OC[C@@H]3[C@@H](COP(O)(=S)O[C@H]2[C@H]1F)C[C@H]3n1cnc2c(N)ncnc21 (single isomer, unassigned) [Example 12-3] | > 100 µM | > 100 µM | > 100 µM | – | 64.4 µM | – |
| Nc1ncnc2c1ncn2[C@@H]1O[C@@H]2COP(O)(=S)OC[C@@H]3[C@@H](COP(O)(=S)O[C@H]2[C@H]1F)C[C@H]3n1cnc2c(=O)[nH]cnc21 (single isomer, unassigned) [Example 5-3] | > 100 µM | > 100 µM | 2.7 µM | – | 0.04 µM | – |
| Nc1ncnc2c1ncn2[C@@H]1C[C@@H]2COP(O)(=S)O[C@H]3[C@H](F)[C@H](n4ccc5c(Cl)ncnc54)O[C@@H]3COP(O)(=S)OC[C@H]21 (single isomer, unassigned) [Example 7-4] | > 100 µM | > 100 µM | 49.1 µM | – | 6.3 µM | – |
| Nc1ncnc2c1ncn2[C@@H]1C[C@@H]2COP(O)(=S)O[C@@H]3[C@H](O)[C@@H](COP(O)(=S)OC[C@H]21)O[C@H]3n1cnc2c(O)nc3nccn3c21 (single isomer, unassigned) [Example 15-2] | > 100 µM | > 100 µM | 26.9 µM | – | 1.8 µM | – |
| Nc1ncnc2c1ncn2[C@@H]1C[C@@H]2COP(=O)(S)O[C@H]3[C@@H](F)[C@H](n4cnc5c(N)ncnc54)O[C@@H]3COP(=O)(S)OC[C@H]21 (single isomer, unassigned) [Example 2-2] | 85 µM | > 100 µM | 0.88 µM | – | 0.01 µM | – |
| O=c1[nH]c2nccn2c2c1ncn2[C@@H]1O[C@@H]2COP(=O)(S)OC[C@@H]3[C@@H](COP(=O)(S)O[C@@H]1[C@@H]2O)C[C@H]3n1cnc2c(O)ncnc21 (single isomer, unassigned) [Example 14-2] | > 100 µM | > 100 µM | 25.5 µM | – | 5.1 µM | – |
| Nc1ncnc2c1ncn2[C@@H]1C[C@@H]2COP(O)(=S)O[C@H]3[C@H](F)[C@H](n4ccc5c(Cl)ncnc54)O[C@@H]3COP(O)(=S)OC[C@H]21 (single isomer, unassigned) [Example 7-1] | – | – | > 100 µM | > 100 µM | 32.7 µM | > 100 µM |
| Nc1nc2c(ncn2[C@@H]2C[C@@H]3COP(O)(=S)O[C@H]4[C@@H](F)[C@H](n5cnc6c(N)ncnc65)O[C@@H]4COP(O)(=S)OC[C@H]32)c(=O)[nH]1 (single isomer, unassigned) [Example 18-4] | > 100 µM | 74.5 µM | 0.05 µM | – | 0.004 µM | – |
| Nc1ncnc2c1ncn2[C@@H]1C[C@@H]2COP(O)(=S)O[C@@H]3[C@H](O)[C@@H](COP(O)(=S)OC[C@H]21)O[C@H]3n1cnc2c(O)nc3nccn3c21 (single isomer, unassigned) [Example 15-4] | > 100 µM | > 100 µM | 3.9 µM | – | 0.47 µM | – |
| Nc1ncnc2c1ncn2[C@@H]1C[C@@H]2COP(O)(=S)O[C@@H]3[C@H](O)[C@@H](COP(O)(=S)OC[C@H]21)O[C@H]3n1cnc2c(O)nc3nccn3c21 (single isomer, unassigned) [Example 15-1] | – | – | 33.5 µM | > 100 µM | 4.4 µM | > 100 µM |
| NC(=O)c1cccc2c1nnn2[C@@H]1O[C@@H]2COP(O)(=S)OC[C@@H]3[C@@H](COP(O)(=S)O[C@H]2[C@H]1F)C[C@H]3n1cnc2c(N)ncnc21 (single isomer, unassigned) [Example 12-2] | > 100 µM | > 100 µM | > 100 µM | – | 88.7 µM | – |
| Nc1ncnc2c1ccn2[C@@H]1O[C@@H]2COP(O)(=S)OC[C@@H]3[C@@H](COP(O)(=S)O[C@H]2[C@@H]1F)C[C@H]3n1cnc2c(N)ncnc21 (single isomer, unassigned) [Example 8-2] | > 100 µM | 97 µM | 33 µM | – | > 100 µM | – |
| Nc1ncnc2c1ncn2[C@@H]1O[C@@H]2COP(O)(=S)OC[C@@H]3[C@@H](COP(O)(=S)O[C@H]2[C@H]1F)C[C@H]3n1cnc2c(=O)[nH]cnc21 (single isomer, unassigned) [Example 5-2] | > 100 µM | > 100 µM | 0.44 µM | – | 0.02 µM | – |
| Nc1ncnc2c1ccn2[C@@H]1O[C@@H]2COP(O)(=S)OC[C@@H]3[C@@H](COP(O)(=S)O[C@H]2[C@@H]1F)C[C@H]3n1cnc2c(N)ncnc21 (single isomer, unassigned) [Example 8-4] | > 100 µM | > 100 µM | > 100 µM | – | 15.8 µM | – |
| Nc1ncnc2c1ncn2[C@@H]1C[C@@H]2COP(O)(=S)O[C@H]3[C@H](F)[C@H](n4cnc5c(N)ncnc54)O[C@@H]3COP(O)(=S)OC[C@H]21 (single isomer, unassigned) [Example 17-1] | – | 2 µM | > 100 µM | – | > 100 µM | > 100 µM |
| Nc1ncnc2c1ccn2[C@@H]1O[C@@H]2COP(O)(=S)OC[C@@H]3[C@@H](COP(O)(=S)O[C@H]2[C@@H]1F)C[C@H]3n1cnc2c(N)ncnc21 (single isomer, unassigned) [Example 8-1] | – | 23 µM | > 100 µM | – | – | > 100 µM |
| Nc1ncnc2c1ncn2[C@@H]1C[C@@H]2COP(O)(=S)O[C@H]3C[C@H](n4ccc5c(Cl)ncnc54)O[C@@H]3COP(=O)(S)OC[C@H]21 (single isomer, unassigned) [Example 6-2] | > 100 µM | – | > 100 µM | – | 82.6 µM | – |
| Nc1ncnc2c1ncn2[C@@H]1C[C@@H]2COP(O)(=S)O[C@H]3C[C@H](n4ccc5c(Cl)ncnc54)O[C@@H]3COP(=O)(S)OC[C@H]21 (single isomer, unassigned) [Example 6-3] | > 100 µM | – | > 100 µM | – | 31.9 µM | – |
| Nc1ncnc2c1ncn2[C@@H]1C[C@@H]2COP(O)(=S)O[C@H]3C[C@H](n4ccc5c(Cl)ncnc54)O[C@@H]3COP(=O)(S)OC[C@H]21 (single isomer, unassigned) [Example 6-4] | > 100 µM | – | > 100 µM | – | 14.8 µM | – |
